Results as given in US7531570B2, “Treatment of diseases using ICE inhibitors” (Vertex Pharmaceuticals Incorporated, priority 2004, dated 2009).

How the values were obtained:
[1] = system: LPS-stimulated IL-1β release from PBMCs of FCAS patients; test: LPS-stimulated IL-1β release from PBMCs of patients with FCAS; assay type: cell-based, human
From the text: (§1) Inhibition by Compound 7 of LPS-Stimulated IL-1β and IL-18 Release from PBMCs of Patients with FCAS Compared with Healthy Controls.
(§2) FCAS patients from 3 families were studied along with healthy controls. The FCAS patients expressed 3 different CIAS1 gene mutations. […] (Neven B, Callebaut I, Prieur A M, Feldmann J, Bodemer C, Lepore L, Derfalvi B, Benjaponpitak S, Vesely R, Sauvain M J, Oertle S, Allen R, Morgan G, Borkhardt A, Hill C, Gardner-Medwin J. Fischer A, de Saint Basile G. Molecular basis of the spectral expression of CIAS1 mutations associated with phagocytic cell-mediated autoinflammatory disorders CINCA/NOMID, MWS, and FCU. Blood. 2004; 103(7): 2809-15).
(§3) Whole blood samples were collected from patients with FCAS and from healthy volunteer controls and cultured in vitro. The production of IL-1β was evaluated under normal, unstimulated conditions and in the presence of lipopolysaccharide at a range of concentrations from 10-10,000 ng/mL. Compound 7 was added to the cultures at concentrations of 30-30,000 nM to observe its ability to inhibit the production of IL-1β and IL-18 by cells from patients with FCAS or healthy volunteers. FIG. 1 illustrates the results of these experiments.
(§4) More specifically, in FIG. 1A, PBMCs from FCAS patients and normal controls were incubated with 10 ng/ml LPS in the presence of increasing concentrations of compound 7 (0.03-30 μM) for 24 hours. IL-1β in cell culture media was measured by ELISA and the results for each subject were normalized to the level of IL-1β release in the absence of compound 7. Results were reported in mean±SEM, for 3 FCAS patients and 5 control patients. LPS-stimulated IL-1β was inhibited by compound 7 with potency very similar to that of PBMCs from normal subjects (IC50 value˜1 μM).
FIG. 1B illustrates the release of IL-1β by PBMCs from FCAS patients or control subjects after exposure to LPS for 24 hours in the absence or presence of 10 μM compound 7. Results were reported in mean±SEM for 7 FCAS patients and 5 control patients. […]

[2] = system: LPS-stimulated IL-1β release from PBMCs from normal subjects; test: LPS-stimulated IL-1β release from PBMCs of healthy controls; assay type: cell-based; settings: Homo sapiens, PBMC, 10 ng/ml LPS, 24 hours, compound 0.03-30 μM, ELISA, FIG. 1A, read-out: IC50 for inhibition of LPS-stimulated IL-1β release
Protocol: as §1, §3, §4

[3] = system: LPS-stimulated IL-18 release from PBMCs of FCAS patients; test: LPS-stimulated IL-18 release from PBMCs of patients with FCAS; assay type: cell-based, human
From the text: as §1, §2, §3
FIG. 1C illustrates the release of IL-18 by PBMCs from FCAS patients or control subjects after 24 hrs exposure to LPS in the absence or presence of 10 μM compound 7. […]

[4] = system: LPS-stimulated IL-1β release from PBMCs from MWS patients; test: LPS-stimulated IL-1β release from PBMCs from MWS patients; assay type: cell-based, human; settings: PBMCs from 4 MWS patients, 10 ng/ml LPS, compound 0.03-10 μM, 24 hour, ELISA, FIG. 2
Protocol: Inhibition by Compound 7 of LPS-Stimulated IL-1β Release from PBMCs from 4 MWS Patients Incubated with 10 ng/ml LPS in the Presence of Increasing Concentrations of Compound 7 (0.03-10 μM) for 24 Hour.
as §3, with “with MWS” for “with FCAS and from healthy volunteer controls”, “of 30-10,000” for “of 30-30,000”, “IL-1β” for “IL-1β and IL-18”, “with MWS” for “with FCAS”, “FIG. 2” for “FIG. 1”
More specifically, in FIG. 2, IL-1β in cell culture media was measured by ELISA and the results for each subject were normalized to the level of IL-1β release in the absence of compound 7. Results were reported individually for each of the 4 MWS patients.

MWS patients = test: Open-label clinical trial: clinical response of 4 MWS patients to compound 7; assay type: in vivo, human
Protocol: Clinical Response of 4 MWS Patients to 900 mg Compound 7 Administered Orally Three Times Daily for 14 Days.
Four patients with MWS were enrolled into an open-label clinical trial to receive treatment with compound 7.
Compound 7 was administered orally at a dose of 900 mg 3 times daily for 14 days.
Specifically, in FIG. 3A, serum interleukin-18 (IL-18) was measured before (day −9 and day 0 (first point)), during (day 0 (second point), day 7 and day 14, (first point)) and after (day 14 (second point) and day 21) treatment with compound 7. On average, serum IL-18 levels were reduced by 55% at day 14. Data were reported in mean±SEM from 4 patients. Baseline levels of serum IL-18 were 170-370 pg /mL and were only slightly elevated relative to those typically observed in healthy control subjects.
In FIG. 3B, Serum amyloid A (SAA) and C-reactive protein (CRP) were measured before, during and after treatment with compound 7, and the amounts of SAA and CRP were reduced on average by 75% and 65%, respectively. Baseline levels of SAA were 150-650 mg/L and of CRP were 20-90 mg/L, both considerably elevated relative to healthy control subjects.
FIG. 3C illustrates that the self-reported patient total symptom scores were reduced on average by 60% during treatment. Individual symptoms (rash, fever/chills, arthralgia/myalgia, eye discomfort, fatigue) were rated daily by patients to be absent (O), minimal (1), mild (2), moderate (3) or severe (4) and the total score was calculated as the sum of individual symptom scores (range 0-20). Patients were experiencing mild-moderate symptoms at the beginning of treatment (scores 10-15), which were reduced to a minimal level (scores about 5) during treatment with compound 7.

patients with MWS = settings: cited from earlier work
[5] = 900 mg orally three times daily for 14 days, MWS patients, FIG. 3B

| Compound | LPS-stimulated IL-1β release in presence of compound ([1]; 10 μM compound, LPS 24 hours, PBMCs from 7 FCAS patients vs 5 controls, FIG. 1B) | IC50 ([1]; Homo sapiens, PBMC, PBMCs from FCAS patients, 10 ng/ml LPS, 24 hours, compound 0.03-30 μM, ELISA, FIG. 1A, read-out: IC50 for inhibition of LPS-stimulated IL-1β release) | Potency of blocking IL-1β secretion, FCAS versus control subjects ([1]; LPS-stimulated cells, FIG. 1) | IC50 [2] | LPS-stimulated IL-18 release in presence of compound ([3]; 10 μM compound, LPS 24 hrs, PBMCs from 3 FCAS patients vs 3 controls, FIG. 1C) | Potency of blocking IL-18 secretion, FCAS versus control subjects ([3]; LPS-stimulated cells, FIG. 1) | Inhibition of LPS-stimulated IL-1β release, potency versus normal subjects [4] | Reduction of C-reactive protein (CRP) (average) (MWS patients; [5]) | Reduction of serum amyloid A (SAA) (average) (MWS patients; [5]) | Reduction of serum interleukin-18 (average) (MWS patients; 900 mg orally three times daily, at day 14, 4 MWS patients, FIG. 3A) | Reduction of self-reported patient total symptom scores (average) (MWS patients; 900 mg orally three times daily, during treatment, MWS patients, FIG. 3C) | Tolerability (MWS patients; four MWS patients, 14-day treatment period, 900 mg 3 times daily orally) | Total symptom score during treatment (MWS patients; sum of 5 symptom scores, range 0-20, scores 10-15 at beginning of treatment) | Clinical inflammatory symptoms in patients with MWS (patients with MWS; daily injection) | Serum amyloid A in patients with MWS (patients with MWS; daily injection) | Urinary excretion of amyloid in patients with MWS (patients with MWS; daily injection) | Effectiveness in treating Muckle-Wells syndrome, Familial Cold Autoinflammatory Syndrome, Hyper-IgD syndrome and systemic onset Juvenile idiopathic Arthritis (patients with MWS; human, in vivo) |
| --- | --- | --- | --- | --- | --- | --- | --- | --- | --- | --- | --- | --- | --- | --- | --- | --- | --- |
| CCO[C@@H]1OC(=O)C[C@@H]1NC(=O)[C@@H]1CCCN1C(=O)[C@@H](NC(=O)c1ccc(N)c(Cl)c1)C(C)(C)C [Compound 7] | inhibited | ~1000 nM | equal potency | ~1000 nM | inhibited | equal potency | potency similar to that of PBMCs from normal subjects | 65% | 75% | 55% | 60% | well tolerated | about 5 |  |  |  |  |
| anakinra: recombinant human interleukin-1 receptor antagonist (rhuIL-1Ra, anakinra) |  |  |  |  |  |  |  |  |  |  |  |  |  | dramatic, rapid and sustained reduction | reduction of serum amyloid A | reduction | effective |
